Where “and” joins values, the source holds several entries; their conditions need not be identical. Equal entries are not always repeated. Toxic doses and inconclusive results are not listed. Rule for the calls: active = survival T/C of 150% or more; inactive = T/C below 125% in these data.
System: P388 leukemia ip, CD2F1 mice, survival T/C
Assay: NCI In Vivo Anticancer Drug Screen. Data for tumor model P388 Leukemia (intraperitoneal) in CD2F1 (CDF1) mice
Settings: endpoint: median survival time, higher = longer survival
Procedure, shortened: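 Mice carrying the transplanted tumor received test compound or vehicle. Survival was recorded in each group, and the value is the treated-group measurement divided by that of the vehicle-treated control group.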

[1] = dose: 12.5 mg/kg/injection, schedule: Q01DX005 (ip), vehicle: saline with Tween-80
[2] = dose: 25.0 mg/kg/injection, schedule: Q01DX005 (ip), vehicle: saline with Tween-80
[3] = dose: 50.0 mg/kg/injection, schedule: Q01DX005 (ip), vehicle: saline with Tween-80
[4] = dose: 100.0 mg/kg/injection, schedule: Q04DX003 (ip), vehicle: saline with Tween-80
[5] = dose: 100.0 mg/kg/injection, schedule: Q01DX005 (ip), vehicle: saline with Tween-80
[6] = dose: 200.0 mg/kg/injection, schedule: Q01DX005 (ip), vehicle: saline with Tween-80
[7] = dose: 50.0 mg/kg/injection, schedule: Q01DX005 (ip), vehicle: Klucel (hydroxypropylcellulose) (HPC)
[8] = dose: 100.0 mg/kg/injection, schedule: Q01DX005 (ip), vehicle: Klucel (hydroxypropylcellulose) (HPC)
[9] = dose: 200.0 mg/kg/injection, schedule: Q01DX005 (ip), vehicle: Klucel (hydroxypropylcellulose) (HPC)
[10] = dose: 50.0 mg/kg/injection, schedule: Q01DX009 (ip), vehicle: saline with Tween-80
[11] = dose: 100.0 mg/kg/injection, schedule: Q01DX009 (ip), vehicle: saline with Tween-80
[12] = dose: 200.0 mg/kg/injection, schedule: Q01DX009 (ip), vehicle: saline with Tween-80
[13] = dose: 60.0 mg/kg/injection, schedule: Q01DX005 (ip), vehicle: saline with Tween-80
[14] = dose: 120.0 mg/kg/injection, schedule: Q01DX005 (ip), vehicle: saline with Tween-80

Measured: T/C

CCOC(=O)C(NC(C)=O)(C(=O)OCC)c1ccc(Cl)cn1
inactive: dose: 100.0 mg/kg/injection, schedule: Q04DX003 (ip), vehicle: saline 103 % of control | dose: 200.0 mg/kg/injection, schedule: Q04DX003 (ip), vehicle: saline 100 % of control | dose: 400.0 mg/kg/injection, schedule: Q04DX003 (ip), vehicle: saline 95 % of control

CCC12C=CCN3CCC4(c5cc(C6c7[nH]c8ccccc8c7CCN7CCCCC67)c(OC)cc5N(C)C4C(O)(C(=O)OC)C1OC(C)=O)C32 (centres undefined)
inactive: dose: 0.06 mg/kg/injection, schedule: Q01DX009 (ip), vehicle: Klucel (hydroxypropylcellulose) (HPC) 115 % of control | dose: 0.13 mg/kg/injection, schedule: Q01DX009 (ip), vehicle: Klucel (hydroxypropylcellulose) (HPC) 122 % of control | dose: 0.13 mg/kg/injection, schedule: Q04DX003 (ip), vehicle: water 95 % of control | dose: 0.25 mg/kg/injection, schedule: Q01DX009 (ip), vehicle: Klucel (hydroxypropylcellulose) (HPC) 123 % of control | dose: 0.25 mg/kg/injection, schedule: Q04DX003 (ip), vehicle: water 112 % of control | dose: 0.5 mg/kg/injection, schedule: Q04DX003 (ip), vehicle: water 113 % of control | dose: 0.67 mg/kg/injection, schedule: Q01DX009 (ip), vehicle: Klucel (hydroxypropylcellulose) (HPC) 103 % of control | dose: 1.0 mg/kg/injection, schedule: Q04DX003 (ip), vehicle: water 103 % of control | dose: 1.5 mg/kg/injection, schedule: Q01DX009 (ip), vehicle: Klucel (hydroxypropylcellulose) (HPC) 105 % of control | dose: 2.0 mg/kg/injection, schedule: Q04DX003 (ip), vehicle: water 91 % of control

COC(=O)c1cc(=O)nc(NN=C2c3ccccc3-c3ccccc32)s1
inactive: [1] 97 % of control | [2] 94 % of control | [3] 88 % of control and 92 % of control

CCOC1(OCC)CC(c2ccccc2)c2cnn(-c3ccccc3)c2O1 (centres undefined)
inactive: dose: 60.0 mg/kg/injection, schedule: Q01DX005 (ip), vehicle: Klucel (hydroxypropylcellulose) (HPC) 92 % of control | dose: 120.0 mg/kg/injection, schedule: Q01DX005 (ip), vehicle: Klucel (hydroxypropylcellulose) (HPC) 93 % of control | dose: 240.0 mg/kg/injection, schedule: Q01DX005 (ip), vehicle: Klucel (hydroxypropylcellulose) (HPC) 87 % of control

COc1cc2c(cc1OC)NC(=O)C2
inactive: dose: 50.0 mg/kg/injection, schedule: Q04DX003 (ip), vehicle: saline with Tween-80 97 % of control | [4] 98 % of control

Cc1ccc(S(=O)(=O)C2(Sc3ccccc3)SC2C(=O)c2ccccc2)cc1 (centres undefined)
inactive: dose: 50.0 mg/kg/injection, schedule: Q01DX009 (ip), vehicle: Klucel (hydroxypropylcellulose) (HPC) 99 % of control | dose: 100.0 mg/kg/injection, schedule: Q01DX009 (ip), vehicle: Klucel (hydroxypropylcellulose) (HPC) 105 % of control | dose: 200.0 mg/kg/injection, schedule: Q01DX009 (ip), vehicle: Klucel (hydroxypropylcellulose) (HPC) 111 % of control

CC1=CC2OC3CC(OC(=O)/C=C/C=C/C(O)C(C)O)C(C)(C2(C)CC1)C31CO1 (centres undefined)
inactive: dose: 0.16 mg/kg/injection, schedule: Q01DX009 (ip), vehicle: saline + alcohol 109 % of control | dose: 0.31 mg/kg/injection, schedule: Q01DX009 (ip), vehicle: saline + alcohol 113 % of control | dose: 0.62 mg/kg/injection, schedule: Q01DX009 (ip), vehicle: saline + alcohol 109 % of control | dose: 1.25 mg/kg/injection, schedule: Q01DX009 (ip), vehicle: saline + alcohol 109 % of control | dose: 2.5 mg/kg/injection, schedule: Q01DX009 (ip), vehicle: saline + alcohol 120 % of control | dose: 5.0 mg/kg/injection, schedule: Q01DX009 (ip), vehicle: saline + alcohol 123 % of control

COc1ccc(S(=O)(=O)N/N=C/CN(C)C)cc1
inactive: [2] 101 % of control | [3] 101 % of control | [5] 101 % of control | [6] 99 % of control

Nc1cc2c3ccccc3ccc2c2ccccc12
inactive: dose: 25.0 mg/kg/injection, schedule: Q01DX005 (ip), vehicle: Klucel (hydroxypropylcellulose) (HPC) 104 % of control | [7] 107 % of control | [8] 109 % of control | [9] 105 % of control

CCOP(=S)(N1CC1C)N1CC1C (centres undefined)
inactive: [10] 120 % of control | dose: 66.0 mg/kg/injection, schedule: Q04DX003 (ip), vehicle: saline with Tween-80 100 % of control | [4] 109 % of control

Cc1cc(O)c2c3c(c(=O)oc2c1)CP(=O)(c1ccccc1)CC3 (centres undefined)
inactive: dose: 100.0 mg/kg/injection, schedule: Q01DX001 (ip), vehicle: saline with Tween-80 94 % of control | dose: 200.0 mg/kg/injection, schedule: Q01DX001 (ip), vehicle: saline with Tween-80 91 % of control | dose: 400.0 mg/kg/injection, schedule: Q01DX001 (ip), vehicle: saline with Tween-80 91 % of control

Cc1nn(C(=S)S)c(C)c1N=Nc1cccc(F)c1
inactive: [3] 117 % of control | [5] 111 % of control | [6] 106 % of control

CC(=O)NC(C(=O)O)C(C)(C)SN=O (centres undefined)
inactive: [10] 93 % of control | [11] 98 % of control | [12] 95 % of control

O=C(O)c1cc(N=C=S)ccc1-c1c2ccc(=O)cc-2oc2cc(O)ccc12
inactive: dose: 12.5 mg/kg/injection, schedule: Q01DX005 (ip), vehicle: saline + Tween-80 + alcohol 105 % of control | dose: 25.0 mg/kg/injection, schedule: Q01DX005 (ip), vehicle: saline + Tween-80 + alcohol 105 % of control | dose: 50.0 mg/kg/injection, schedule: Q01DX005 (ip), vehicle: saline + Tween-80 + alcohol 105 % of control | [13] 114 % of control | [14] 115 % of control

COc1cc(OC)c(/C=C\c2ccnc3ccccc23)c(OC)c1
inactive: [10] 97 % of control | [11] 90 % of control | [12] 104 % of control

COC(=O)c1nnn(-c2cccc(C(F)(F)F)c2)c1N
inactive: [13] 89 % of control | [14] 90 % of control | dose: 240.0 mg/kg/injection, schedule: Q01DX005 (ip), vehicle: saline with Tween-80 100 % of control

Cc1ccc(/C=N/NC(=O)C(=O)Nc2ccc(Cl)c([N+](=O)[O-])c2)cc1
inactive: dose: 6.25 mg/kg/injection, schedule: Q01DX005 (ip), vehicle: saline with Tween-80 88 % of control | [1] 95 % of control

Cc1nn(-c2ccccc2)nc1CBr
inactive: [3] 97 % of control | [5] 106 % of control

c1c2noc1CCCCCCCCC2
inactive: [7] 104 % of control | [8] 110 % of control | [9] 118 % of control

CC1(C)CC(N2CCN(CCO)CC2)=CC(=S)N1
inactive: [7] 103 % of control | [8] 93 % of control | [9] 104 % of control

Cn1cc([N+](=O)[O-])c([N+](=O)[O-])c1
inactive: [10] 102 % of control | [11] 103 % of control | [12] 102 % of control

CC(C)(Br)C(=O)/C=C/c1ccccc1
inactive: [13] 105 % of control | [14] 115 % of control

COC1c2ccccc2CC(c2ccccc2)=NN1C(C)=O (centres undefined)
inactive: dose: 60.0 mg/kg/injection, schedule: Q01DX005 (ip), vehicle: saline 100 % of control | dose: 120.0 mg/kg/injection, schedule: Q01DX005 (ip), vehicle: saline 102 % of control | dose: 240.0 mg/kg/injection, schedule: Q01DX005 (ip), vehicle: saline 97 % of control

Reference: PubChem BioAssay AID330 (DTP/NCI, 2004)
